# Reference: US20090075941A1, “TREATING NEOPLASMS” (THE UAB RESEARCH FOUNDATION, priority 2006, published 2009)
# Assays:
# AB-12 cells = experiment: Cell viability, MTS-assay; assay type: cell-based, mouse
# Protocol: (§1) Cell viability assays. Cells were plated on 96-well plates at the density of 1×10^3 cells in 100 μl per well in normal culture medium, with or without of the indicated concentrations of the various bisphosphonate combinations and or 1 mM CaCl2, 1 mM EGTA or vehicle and cultured for 48 h. Cell viability was assessed with 3-(4,5-dimethylthiazol-2-yl)-5-(3-carboxy tetrazolium, inner salt (MTS)-assays (CellTiter Aqueous One 96 from Promega; Madison, Wis.) according to the manufacturer's instructions. For each treatment, a PBS-control group was run simultaneously on the same plate. The results for each treatment were calculated as % of the corresponding PBS-group.
# AC29 cells = experiment: In vitro growth assay, BrdU incorporation; assay type: cell-based, mouse; details: with p38 inhibitor SB202190 10^−5 M vs inactive control compound, 5 days
# Protocol: (§2) In vitro growth assay. […] Briefly, […] were plated onto 96-well plates in 100 μl of normal culture medium. The cells were then treated with the indicated agents for various times. BrdU was added to the wells for the final 24 h and incorporated BrdU was detected with sequential additions of monoclonal mouse anti-BrdU antibody and HRP-conjugated anti-mouse antibody. After addition of the substrate for HRP, intensity of the colored reaction product, which is proportional to the amount of BrdU incorporated into the cells, was read with spectrophotometer at […].
# AB12 cells [1] = experiment: In vitro growth assay, BrdU incorporation; assay type: cell-based, mouse; details: with p38 inhibitor SB202190 10^−5 M vs inactive control compound, 5 days
# Protocol: as §2
# [2] = system: unprenylated Rap1A in AC29 cells; experiment: Western blot, accumulation of unprenylated Rap1A (Example 1); assay type: cell-based, mouse
# Protocol: (§3) Western blotting. AB12 and AC29 cells were plated on 6-well plates in normal culture medium until near confluency. The cells were then rinsed with sterile PBS and cultured for further 24 h in serum-free culture medium, in the presence or absence of 2×10^−4-10^−5 M risedronate, zoledronate or PBS control, with or without 25 μM geranylgeraniol, or the same volume of ethanol as a vehicle control. Culture medium was discarded and the cells were harvested in lysis buffer (20 mM Tris pH 7.4, 150 mM NaCl, 1 mM EDTA, 1 mM EGTA, 1% Triton, 2.5 mM sodium pyrophosphate, 1 mM β-glycerolphosphate, 1 mM Na3VO4, 1 μg/ml leupeptin (Cell Signaling Technology, Inc.; Danvers, Mass.)) and clarified by centrifugation. After boiling the supernatants in reducing SDS sample buffer, equal amounts of protein (˜50 μg) were loaded per lane and the samples were electrophoresed on 10% polyacrylamide SDS gel and transferred to a nitrocellulose membrane. Unprenylated Rap1A was detected with the antibody SC-1482 and total Rap1 (both prenylated and unprenylated forms of both Rap1A and Rap1B) was detected with the antibody SC-65 (Santa Cruz Biotechnology, Inc.; Santa Cruz, Calif.), according to the manufacturer's recommendations. The phosphorylation status of p38 was studied with anti-phospho-p38 and anti-total p38 antibodies (Cell Signaling Technology, Inc.), as recommended by the manufacturer. The protein bands were visualized by chemiluminescence using SuperSignal West Pico ECL kit (Pierce; Rockford, Ill.).
# [3] = system: unprenylated Rap1A in AB12 cells; experiment: as above; assay type: cell-based, mouse
# Protocol: as §3
# AB12 cells [4] = experiment: Intraperitoneal mouse mesothelioma model, survival; assay type: in vivo, BALB/c mice; details: AB12 i.p.
# Protocol: (§4) In vivo mesothelioma models. Female BALB/c mice, four to eight weeks of age, were obtained from the National Cancer Institute-Frederick Cancer Research Facility (Frederick, Md.) and were housed in the Pathogen-Free Rodent Shared Facility (Comprehensive Cancer Center, University of Alabama at Birmingham). All animal procedures were performed, in accordance with recommendations for the proper care and use of laboratory animals and were approved by the local IACUC. Subcutaneous (s.c.) and intraperitoneal (i.p.) mouse mesothelioma models were evaluated. In the s.c. model, 3×10^6 AB12 cells were first injected s.c. into cohorts of BALB/c mice. Treatments with i.p. BPs or vehicle were started when tumors became palpable on day 10 and continued every six days for a total of 4 treatments. Tumor size was measured bidimensionally with calipers every two to three days and tumor volume calculated by the formula (length×width^2)÷2. Mice were euthanized before tumors reached the size of 2000 mm^3. In the i.p. model, AC29 or AB12 cells (5×10^5/0.5 ml) were injected i.p, into cohorts of 10-12 BALB/c using a 26-gauge needle. Treatment was initiated 6 days after tumor inoculation and the mice were followed for survival. In the i.p. model risedronate (15 mg/kg), zoledronate (0.5 mg/kg) or PBS were administered i.p. three times a week for two weeks.
# AB12 cells [5] = experiment: Subcutaneous mouse mesothelioma model, tumor volume; assay type: in vivo; details: AB12 s.c. in BALB/c mice; risedronate 15 mg/kg (P<0.02), zoledronate 0.5 mg/kg (P<0.003); every six days, 4 treatments from day 10
# Protocol: as §4
# [6] = system: p38 phosphorylation in AB12 cells; experiment: Western blot, phosphorylation of p38 (Example 1); assay type: cell-based, mouse; details: 24 h
# Protocol: as §3, with “The protein bands were visualized by chemiluminescence using SuperSignal West Pico ECL kit (Pierce; Rockford, Ill.).” left out
# [7] = system: p38 phosphorylation in AC29 cells; experiment: Western blot, phosphorylation of p38 (Example 1); assay type: cell-based, mouse; details: 24 h
# Protocol: as §3, with “The protein bands were visualized by chemiluminescence using SuperSignal West Pico ECL kit (Pierce; Rockford, Ill.).” left out
# J774 cells = experiment: Cell viability, MTS-assay; assay type: cell-based
# Protocol: as §1
# [8] = N-BP 10^−4 M + clodronate 10^−3 M
# [9] = N-BP 10^−4 M + etidronate 10^−3 M
structure (smiles),measurement,setting,value
O=P(O)(O)C(O)(Cc1cccnc1)P(=O)(O)O [risedronate],effect of added Ca2+ on the bisphosphonate's growth inhibitory effect,"AB-12 cells; 1 mM CaCl2, N-BP 10^−4 M or p-BP 10^−3 M",enhanced
same,effect of added EGTA on the bisphosphonate's growth inhibitory effect,"AB-12 cells; 1 mM EGTA, N-BP 10^−4 M",enhanced
same,effect of excess clodronate on the viability change induced by the nitrogen-containing bisphosphonate,AB-12 cells; [8],"decreased slightly, but significantly cell viability"
same,effect of excess etidronate on the viability change induced by the nitrogen-containing bisphosphonate,AB-12 cells; [9],decreased cell viability
same,BP-induced growth inhibition on inhibition of p38,AC29 cells,augmented
same,BP-induced growth inhibition on inhibition of p38,AB12 cells [1],augmented
same,accumulation of unprenylated Rap1A,"[2]; 24 h, 2×10^−4-2×10^−6 M",dose-dependent accumulation
same,reversal of BP-induced accumulation of unprenylated Rap1A by geranylgeraniol,[2]; with 25 μM geranylgeraniol,almost completely reversed
same,accumulation of unprenylated Rap1A,"[3]; 24 h, 2×10^−4-2×10^−6 M",dose-dependent accumulation
same,reversal of BP-induced accumulation of unprenylated Rap1A by geranylgeraniol,[3]; with 25 μM geranylgeraniol,almost completely reversed
same,long-term (> 60 days) survivors,"AB12 cells [4]; groups of 12 mice, risedronate 15 mg/kg i.p.",three
same,median survival,"AB12 cells [4]; zoledronate 0.5 mg/kg or risedronate 15 mg/kg i.p. three times a week for two weeks, PBS 26 days",30 days
same,subcutaneous tumor growth,AB12 cells [5],inhibited subcutaneous tumor growth
same,p38 phosphorylation,[6],dose-dependent increase
same,p38 phosphorylation,[7],dose-dependent increase
same,effect of added EGTA on the bisphosphonate's growth inhibitory effect,"J774 cells; 1 mM EGTA, N-BP 10^−4 M or clodronate 10^−3 M",reversed
same,cell viability,J774 cells; 10^−4 M,significantly decreased cellular viability
same,effect of excess clodronate on the viability change induced by the nitrogen-containing bisphosphonate,J774 cells; [8],significantly reversed
same,effect of excess etidronate on the viability change induced by the nitrogen-containing bisphosphonate,J774 cells; [9],reversed
